Measurements taken from patent publication US10034897B2, “Methods and compositions for muscular and neuromuscular diseases” (priority 2012, dated 2018).

Experiments:
[1] = Nitric oxide gas bubbled through carrier, change in weight; type: physicochemical; details: NO gas bubbled 40 hr, 25 °C
Experimental: This example illustrates one technique for preparing a composition in accordance with one embodiment of the invention. An accurate amount of a carrier (HNC 167-62) (see below) was introduced into a system. The carrier weight used in these experiments was approximately 250 g and the vessel size was 500 ml. The vessel was equipped with a mechanical stirrer, gas inlet, and gas outlet and was previously purged with argon for about an hour. The temperature of the carrier was kept at about 25-30° C. NO gas regulated at 5 psi (1 psi is about 6,900 Pa) and was then introduced at a controlled rate of about 1 bubble/s with continuous stirring. […] After 6 hours, the weight of the carrier had increased by 0.15%, by 12 hours by 0.25%, and by 24 hours by 0.56%. These increases in weight were believed to be significant considering the relative small molecular weight of NO versus the carrier. […] The carrier also can solidify upon cooling if the carrier is initially a solid at lower temperature.
Each carrier was taken in a 500 mL three necked flask equipped with a mechanical stirrer, gas inlet and a gas outlet. The system was purged with argon for one hour at room temperature (25° C.). Then nitric oxide gas was bubbled into the system. Then, nitric oxide gas was bubbled through carrier for stipulated amount of time. The changes in weight and color were noted. […]

humans [2] = experiment: Laser Doppler capillary blood flow, closed Hilltop chamber on forearm, Example 5; type: in vivo, human; details: applied to the skin at 1/10% in alcohol
From the text: The formulation used in these studies contained nitric oxide dispersed in a lipid matrix. […] Nitric oxide is a very rapid acting molecule, and these studies used a system that employed laser Doppler with a covered chamber. The formulation was placed into the chamber and then attached to the skin by an adhesive layer on the covering. This provided a stable measuring device as determined by multiple normal evaluations of the capillary blood flow without treatment of nitric oxide.
A known positive control, methyl nicotinate, was applied to the skin at a concentration of 1/10% in alcohol. […] The vascular dynamics are such that when the blood vessels dilate physical parameters follow Bernoulli's law. This states that as one increases the diameter of a tube containing a liquid to flow will increase but the pressure and the speed of the liquid will decrease. The laser Doppler device accurately measured these parameters.
The test product was labeled as 10,000 ppm NO (nitric oxide). The study participants had 100 mg of the test product applied in a closed Hilltop chamber on the forearm. […]
A Moor Instruments DRT4 Laser Doppler Blood Flow Monitor (Devon, England) was used in these studies. The laser Doppler technique measured blood flow in the microcapillaries of the skin that are close to the skin surface and the blood flow in underlying arterioles and venules that help to regulate skin temperature. […]

humans [3] = experiment: Laser Doppler capillary circulation in five human subjects, Example 7; type: in vivo; details: positive control formulation containing 0.1% methyl nicotinate
From the text: This example illustrates delivery of nitric oxide formulations to five human subjects, using procedures and formulations similar to those discussed in Example 5. Each person served as their own control for the testing. A Moor Instruments Laser Doppler was used to determine circulation. […] The formulations used produce positive, almost immediate results when applied to the skin which, in these studies, was manifested by vasodilatation of the cutaneous vascular system.
For each subject, the following creams were applied: a negative control formulation (containing no NO), 0.010 gram of a 10,000 ppm NO formulation, 0.020 gram of a 10,000 ppm NO formulation, and a positive control formulation containing 0.1% methyl nicotinate. The formulations were prepared using procedures similar to those discussed in Example 1.

Row | SMILES | % Wt. gain [1] | Wt Gain [1] | laser Doppler response of positive control (humans [2]) | vasodilatation (humans [3])
1 | OCCCO [1,3-Propanediol, 1,3-propanediol] | 0.09% | 0.16 g |  | 
2 | COC(=O)c1cccnc1 [methyl nicotinate] |  |  | rapid response typical of the vasodilator | vasodilatation was observed
